Experimental data: article PMC6934184, “Selective DNA-PKcs inhibition extends the therapeutic index of localized radiotherapy and chemotherapy” (The Journal of Clinical Investigation, 2019)

Target: T1, ACVRL1 (ALK1) (Homo sapiens, UniProt P37023)
T1 construct: purchased Thermo Fisher Scientific (Life Technologies) SelectScreen
Assay: SelectScreen LanthaScreen
Type: binding
Settings: read-out: % displacement
Outline: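 SelectScreen broad panel; activity (Z'LYTE, Adapta) plus binding formats. ATP: Km app for CSF1R Z'LYTE; 10 for CAMK1 Adapta. Readout = % per kinase.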

T1 sequence (P37023 22-503): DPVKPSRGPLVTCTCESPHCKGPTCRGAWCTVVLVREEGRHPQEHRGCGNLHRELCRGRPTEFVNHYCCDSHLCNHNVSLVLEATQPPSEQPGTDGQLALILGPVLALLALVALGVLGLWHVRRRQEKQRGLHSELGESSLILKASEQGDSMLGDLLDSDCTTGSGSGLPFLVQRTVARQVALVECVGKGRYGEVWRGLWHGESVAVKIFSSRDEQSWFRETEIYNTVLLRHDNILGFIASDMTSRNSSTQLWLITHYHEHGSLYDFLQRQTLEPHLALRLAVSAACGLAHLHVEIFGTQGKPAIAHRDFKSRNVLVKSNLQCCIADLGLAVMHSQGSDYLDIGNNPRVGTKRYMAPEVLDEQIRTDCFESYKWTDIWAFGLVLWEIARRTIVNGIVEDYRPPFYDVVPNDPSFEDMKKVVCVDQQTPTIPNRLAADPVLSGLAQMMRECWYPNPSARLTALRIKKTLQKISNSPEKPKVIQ

CN(C(=O)CN1CCOCC1)c1ccc2sc3c(-c4cccc5c(=O)cc(N6CC7CCC(C6)O7)oc45)cccc3c2c1 [NU5455]
inhibition at 1 µM: 2.3%
